System: Energy system protein genes
Assay: DNA chip mRNA expression in yeast, energy system protein genes (Table 4)
Format: cell-based, Saccharomyces cerevisiae S288C
How it was run: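 Ratios compare mRNA levels in stressed and control S. cerevisiae. Each toxicant was applied for two hours to log-phase cultures at 25° C. at a sub-lethal, growth-inhibiting level; fluorescent cDNA (Cy3- or Cy5-dUTP) was hybridized to a genome-wide yeast chip for over 12 h at 65° C.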

`CCCCC[C@H](O)CC(=O)CCc1ccc(O)c(OC)c1` [(13), gingerol] was tested, and the “The level of expressed mRNA in the presence of chemical substance/The level of expressed mRNA in the absence of chemical substance” value (yeast gene YIR031C, cells incubated two hours with the chemical substance) was 1.0, the “The level of expressed mRNA in the presence of chemical substance/The level of expressed mRNA in the absence of chemical substance” value (yeast gene YJL045W, cells incubated two hours with the chemical substance) was 1.6 and the “The level of expressed mRNA in the presence of chemical substance/The level of expressed mRNA in the absence of chemical substance” value (yeast gene YJL121C, cells incubated two hours with the chemical substance) was 0.7. For the same compound, the “The level of expressed mRNA in the presence of chemical substance/The level of expressed mRNA in the absence of chemical substance” value (yeast gene YJL216C, cells incubated two hours with the chemical substance) was 1.1, the “The level of expressed mRNA in the presence of chemical substance/The level of expressed mRNA in the absence of chemical substance” value (yeast gene YJR048W) was 0.4 and the “The level of expressed mRNA in the presence of chemical substance/The level of expressed mRNA in the absence of chemical substance” value (yeast gene YJR121W, cells incubated two hours with the chemical substance) was 1.0. For the same compound, the “The level of expressed mRNA in the presence of chemical substance/The level of expressed mRNA in the absence of chemical substance” value (yeast gene YKL035W) was 2.0, the “The level of expressed mRNA in the presence of chemical substance/The level of expressed mRNA in the absence of chemical substance” value (yeast gene YKL060C, cells incubated two hours with the chemical substance) was 1.2 and the “The level of expressed mRNA in the presence of chemical substance/The level of expressed mRNA in the absence of chemical substance” value (yeast gene YKL085W, cells incubated two hours with the chemical substance) was 1.5. For the same compound, the “The level of expressed mRNA in the presence of chemical substance/The level of expressed mRNA in the absence of chemical substance” value (yeast gene YKL150W) was 1.8, the “The level of expressed mRNA in the presence of chemical substance/The level of expressed mRNA in the absence of chemical substance” value (yeast gene YKR058W, cells incubated two hours with the chemical substance, 25° C., YPD medium) was 0.7 and the “The level of expressed mRNA in the presence of chemical substance/The level of expressed mRNA in the absence of chemical substance” value (yeast gene YLL041C, cells incubated two hours with the chemical substance) was 1.0. For the same compound, the “The level of expressed mRNA in the presence of chemical substance/The level of expressed mRNA in the absence of chemical substance” value (yeast gene YLR164W, cells incubated two hours with the chemical substance) was 1.0, the “The level of expressed mRNA in the presence of chemical substance/The level of expressed mRNA in the absence of chemical substance” value (yeast gene YLR273C) was 1.7 and the “The level of expressed mRNA in the presence of chemical substance/The level of expressed mRNA in the absence of chemical substance” value (yeast gene YLR354C, cells incubated two hours with the chemical substance) was 1.0. The “The level of expressed mRNA in the presence of chemical substance/The level of expressed mRNA in the absence of chemical substance” value (yeast gene YML054C) was 2.8, the “The level of expressed mRNA in the presence of chemical substance/The level of expressed mRNA in the absence of chemical substance” value (yeast gene YML087C) was 1.5 and the “The level of expressed mRNA in the presence of chemical substance/The level of expressed mRNA in the absence of chemical substance” value (yeast gene YML100W) was 3.8. For the same compound, the “The level of expressed mRNA in the presence of chemical substance/The level of expressed mRNA in the absence of chemical substance” value (yeast gene YML120C, cells incubated two hours with the chemical substance) was 1.2, the “The level of expressed mRNA in the presence of chemical substance/The level of expressed mRNA in the absence of chemical substance” value (yeast gene YML125C) was 2.2 and the “The level of expressed mRNA in the presence of chemical substance/The level of expressed mRNA in the absence of chemical substance” value (yeast gene YML129C, cells incubated two hours with the chemical substance) was 1.0. The “The level of expressed mRNA in the presence of chemical substance/The level of expressed mRNA in the absence of chemical substance” value (yeast gene YMR073C, cells incubated two hours with the chemical substance) was 1.2, the “The level of expressed mRNA in the presence of chemical substance/The level of expressed mRNA in the absence of chemical substance” value (yeast gene YMR089C) was 2.3 and the “The level of expressed mRNA in the presence of chemical substance/The level of expressed mRNA in the absence of chemical substance” value (yeast gene YMR105C) was 3.3. The “The level of expressed mRNA in the presence of chemical substance/The level of expressed mRNA in the absence of chemical substance” value (yeast gene YMR205C, cells incubated two hours with the chemical substance) was 1.3, the “The level of expressed mRNA in the presence of chemical substance/The level of expressed mRNA in the absence of chemical substance” value (yeast gene YMR261C, cells incubated two hours with the chemical substance) was 1.6 and the “The level of expressed mRNA in the presence of chemical substance/The level of expressed mRNA in the absence of chemical substance” value (yeast gene YMR267W, cells incubated two hours with the chemical substance, 25° C., YPD medium) was 0.7. For the same compound, the “The level of expressed mRNA in the presence of chemical substance/The level of expressed mRNA in the absence of chemical substance” value (yeast gene YNL037C) was 1.9, the “The level of expressed mRNA in the presence of chemical substance/The level of expressed mRNA in the absence of chemical substance” value (yeast gene YNL071W) was 2.5 and the “The level of expressed mRNA in the presence of chemical substance/The level of expressed mRNA in the absence of chemical substance” value (yeast gene YNL237W) was 3.2. For the same compound, the “The level of expressed mRNA in the presence of chemical substance/The level of expressed mRNA in the absence of chemical substance” value (yeast gene YNL331C) was 3.1, the “The level of expressed mRNA in the presence of chemical substance/The level of expressed mRNA in the absence of chemical substance” value (yeast gene YOL126C) was 2.6 and the “The level of expressed mRNA in the presence of chemical substance/The level of expressed mRNA in the absence of chemical substance” value (yeast gene YOL157C) was 1.4. The “The level of expressed mRNA in the presence of chemical substance/The level of expressed mRNA in the absence of chemical substance” value (yeast gene YOL165C) was 3.7, the “The level of expressed mRNA in the presence of chemical substance/The level of expressed mRNA in the absence of chemical substance” value (yeast gene YOR136W) was 1.5 and the “The level of expressed mRNA in the presence of chemical substance/The level of expressed mRNA in the absence of chemical substance” value (yeast gene YOR178C, cells incubated two hours with the chemical substance) was 1.0. The “The level of expressed mRNA in the presence of chemical substance/The level of expressed mRNA in the absence of chemical substance” value (yeast gene YOR221C) was 1.0, the “The level of expressed mRNA in the presence of chemical substance/The level of expressed mRNA in the absence of chemical substance” value (yeast gene YOR347C) was 1.8 and the “The level of expressed mRNA in the presence of chemical substance/The level of expressed mRNA in the absence of chemical substance” value (yeast gene YOR388C, cells incubated two hours with the chemical substance) was 1.1. For the same compound, the “The level of expressed mRNA in the presence of chemical substance/The level of expressed mRNA in the absence of chemical substance” value (yeast gene YPL031C, cells incubated two hours with the chemical substance) was 1.6, the “The level of expressed mRNA in the presence of chemical substance/The level of expressed mRNA in the absence of chemical substance” value (yeast gene YPL061W, cells incubated two hours with the chemical substance) was 1.1 and the “The level of expressed mRNA in the presence of chemical substance/The level of expressed mRNA in the absence of chemical substance” value (yeast gene YPL171C) was 2.4. The “The level of expressed mRNA in the presence of chemical substance/The level of expressed mRNA in the absence of chemical substance” value (yeast gene YPL240C) was 2.9, the “The level of expressed mRNA in the presence of chemical substance/The level of expressed mRNA in the absence of chemical substance” value (yeast gene YPL271W) was 1.2 and the “The level of expressed mRNA in the presence of chemical substance/The level of expressed mRNA in the absence of chemical substance” value (yeast gene YPL275W, cells incubated two hours with the chemical substance) was 1.0. The “The level of expressed mRNA in the presence of chemical substance/The level of expressed mRNA in the absence of chemical substance” value (yeast gene YPR006C) was 1.8, the “The level of expressed mRNA in the presence of chemical substance/The level of expressed mRNA in the absence of chemical substance” value (yeast gene YPR026W) was 2.3 and the “The level of expressed mRNA in the presence of chemical substance/The level of expressed mRNA in the absence of chemical substance” value (yeast gene YPR048W, cells incubated two hours with the chemical substance) was 0.6.
